Measurements reported in patent US20060189683A1, “Parenteral formulation of mycophenolic acid, a salt or prodrug thereof” (priority 2003, published 2006).

Experiment: Plasma levels of MPA after intravenous continuous infusion in stable renal transplant patients
Format: in vivo, human
Settings: 12 stable renal transplant patients
Procedure: 12 ml of the solution of example 2 is given to 12 stable renal transplant patients as an intravenous continuous infusion into an arm vein over 30 min with a constant infusion rate of 0.4 ml/min.
Blood samples are taken for 36 h after dosing at the following time points: 0, 10 min, 20 min, 30 min, 45 min, 1.0 h, 1.5 h, 2.0 h, 4.0 h, 8.0 h, 12.0 h, 24.0 h, 36.0 h from the onset of infusion.

interpatient variability for AUC0-t (12 ml of solution of example 2, i.v. infusion over 30 min): less than 25%
half-life (human, iv, 12 ml of the solution of example 2, 12 ml of solution of example 2, i.v. infusion over 30 min, read-out: Mean t1/2 (converted)): 9.68 h
AUC(0-t) (human, iv, 12 ml of the solution of example 2, 12 ml of solution of example 2, i.v. infusion over 30 min, sampling for 36 h, read-out: Mean MPA AUC0-t): 42100 ng·h/mL
Compound: COc1c(C)c2c(c(O)c1C/C=C(\C)CCC(=O)O)C(=O)OC2 [MPA, Mycophenolic acid]
